“And” between values parts separate entries of the source, which are not always exact repeats. Equal entries are not always repeated. After the bases stand the sugars from the 5' end (letter, count) and the backbone: PS all phosphorothioate, else s phosphorothioate and o phosphodiester by linkage. Methylation of C is not given here. e = 2'-O-(2-methoxyethyl) (MOE); k = constrained ethyl (cEt); d = 2'-deoxy (DNA)
Molecular target: IRF4
Conditions: ASO

Sequence	target mRNA inhibition (SK-MEL-28, 4 µM)	target mRNA inhibition (MM.1R, 1 µM)	also measured
GAGGTTTTCCTAAATA (sugars k3 d10 k3, PS)	69%	–	target mRNA inhibition (SK-MEL-28, 0.185 µM): 20%; target mRNA inhibition (SK-MEL-28, 5 µM): 75%; target mRNA inhibition (SK-MEL-28, 15 µM): 89%
GAGTTGTACAGGACAG (sugars k3 d10 k3, PS)	–	51% and 52%	–
GATAACGAGGTGCCTT (sugars k3 d10 k3, PS)	18%	–	–
GATAAGGCACTACTTC (sugars k3 d10 k3, PS)	47%	–	–
GATACAAAACGGACTG (sugars k3 d10 k3, PS)	44%	–	–
GATACAGCAGGCACTT (sugars k3 d10 k3, PS)	63%	–	–
GATATAAATAGCTGTT (sugars k4 d8 k4, PS)	61%	–	target mRNA inhibition (MM.1R, 0.074 µM): 5% and 3%; target mRNA inhibition (MM.1R, 0.222 µM): 6% and 15%; target mRNA inhibition (MM.1R, 0.666 µM): 12%; target mRNA inhibition (MM.1R, 2 µM): 24% and 19%; target mRNA inhibition (SK-MEL-28, 0.185 µM): 2% and 6% and 10%; target mRNA inhibition (SK-MEL-28, 5 µM): 57% and 76%
GATATCAAAGATCTCC (sugars k3 d10 k3, PS)	57%	–	–
GATCACTCAGAATTTT (sugars k3 d10 k3, PS)	50%	–	–
GATCATAAAGGACAAT (sugars k3 d10 k3, PS)	30%	–	–
GATCTCCATGGTGCAG (sugars k3 d10 k3, PS)	–	22% and 12%	–
GATGACTCCATGAGGT (sugars k3 d10 k3, PS)	67%	–	–
GATGCTCAGAATGAAG (sugars k3 d10 k3, PS)	43%	–	–
GATGGGACCGCCCTGG (sugars k3 d10 k3, PS)	–	-13%	–
GATGTATACCAACGAC (sugars k3 d10 k3, PS)	68%	–	–
GATGTGATAGCTGAGC (sugars kddddddddddkekek, PS)	–	50%	–
GATGTGATAGCTGAGC (sugars kdddddddddkekeke, PS)	–	18%	–
GATTATATACTGGTTG (sugars k2 d9 e3 k2, PS)	–	42%	–
GATTATATACTGGTTG (sugars k3 d10 k3, PS)	59%	–	–
GATTATATACTGGTTG (sugars kkdddddddddekeke, PS)	–	46%	–
GATTGATGTGATAGCT (sugars k3 d10 k3, PS)	56%	–	–
GATTTCTAGGTAATCT (sugars k3 d10 k3, PS)	31%	–	–
GCAAAAAATATAACGG (sugars k3 d10 k3, PS)	47%	–	–
GCAAAAGAAACGAGTT (sugars k3 d10 k3, PS)	8%	–	–

Sequence	target mRNA inhibition (SK-MEL-28, 4 µM)	target mRNA inhibition (MM.1R, 1 µM)	also measured
GCAAGATGACTCCATG (sugars k3 d10 k3, PS)	63%	–	–
GCAAGCTATATTAAAG (sugars k3 d10 k3, PS)	71%	-19%	target mRNA inhibition (MM.1R, 0.0625 µM): 1%; target mRNA inhibition (MM.1R, 0.074 µM): 17%; target mRNA inhibition (MM.1R, 0.222 µM): 26%; target mRNA inhibition (MM.1R, 0.25 µM): 1%; target mRNA inhibition (MM.1R, 0.666 µM): 41%; target mRNA inhibition (MM.1R, 2 µM): 82%; target mRNA inhibition (MM.1R, 4 µM): 1%
GCAAGCTGAATGCTCT (sugars k3 d10 k3, PS)	53%	–	–
GCAAGTCTACAGCCCC (sugars k3 d10 k3, PS)	–	–	target mRNA inhibition (MM.1R, 0.0625 µM): -7%; target mRNA inhibition (MM.1R, 0.25 µM): 7%; target mRNA inhibition (MM.1R, 4 µM): 68%
GCAAGTGGAGGTCTTT (sugars k3 d10 k3, PS)	74% and 79%	–	–
GCAAGTGTCTAAAGTC (sugars k3 d10 k3, PS)	–	49% and 53%	–
GCAATGAACGGAAGTT (sugars k3 d10 k3, PS)	45%	–	–
GCACAGCCGTCCGCCT (sugars k3 d10 k3, PS)	16%	–	–
GCACAGGCGCGGACGC (sugars k3 d10 k3, PS)	–	-6%	–
GCACATCAATGTTTTA (sugars kddddddddddkekek, PS)	–	13% and 0%	–
GCACATCAATGTTTTA (sugars kkddddddddddkeke, PS)	–	49% and 50%	–
GCACATCAATGTTTTA (sugars kkdddddddddekeke, PS)	–	10% and 12%	–
GCACATCAATGTTTTA (sugars kkdddddddddkdkdk, PS)	–	11% and 7%	–
GCAGCCAAGGATAACC (sugars k3 d10 k3, PS)	–	6%	–
GCAGCTTCTCAATGTT (sugars k3 d10 k3, PS)	43%	–	–
GCAGTAAACGCAAGTC (sugars k3 d10 k3, PS)	54%	–	–
GCAGTCAATTGGACGC (sugars k3 d10 k3, PS)	77%	–	–
GCAGTGATGTCAGGTT (sugars k3 d9 k3 e1, PS)	–	62%	target mRNA inhibition (MM.1R, 0.074 µM): 15%; target mRNA inhibition (MM.1R, 0.222 µM): 33%; target mRNA inhibition (MM.1R, 0.666 µM): 51%; target mRNA inhibition (MM.1R, 2 µM): 73%
GCAGTGATGTCAGGTT (sugars kkkddddddddkekek, PS)	–	36%	–
GCATAAAAGGTTCCTG (sugars k4 d8 k4, PS)	47%	–	target mRNA inhibition (MM.1R, 0.074 µM): 0%; target mRNA inhibition (MM.1R, 0.222 µM): -3%; target mRNA inhibition (MM.1R, 0.666 µM): -7%; target mRNA inhibition (MM.1R, 2 µM): 3%; target mRNA inhibition (SK-MEL-28, 0.185 µM): 4% and 9% and 17%; target mRNA inhibition (SK-MEL-28, 5 µM): 34% and 37% and 50%; target mRNA inhibition (SK-MEL-28, 15 µM): 75% and 72% and 89%
GCATAGAGCCCGTCGG (sugars k3 d10 k3, PS)	50%	–	–
GCATAGGTCCTTCAGA (sugars k3 d10 k3, PS)	31%	–	–
GCATCGAGATCAGTCT (sugars k3 d10 k3, PS)	57%	–	–
GCATGACAGGGCGAGG (sugars k3 d10 k3, PS)	43%	–	–

Sequence	target mRNA inhibition (SK-MEL-28, 4 µM)	target mRNA inhibition (MM.1R, 1 µM)	also measured
GCATGAGGGTGACACA (sugars k3 d10 k3, PS)	42%	–	–
GCATTTGGAAAAAGCC (sugars k3 d10 k3, PS)	71%	–	–
GCATTTTATCATCCGA (sugars kddddddddddkekek, PS)	–	21%	–
GCATTTTATCATCCGA (sugars kkkdddddddddkeke, PS)	–	32%	–
GCCAAACAAACAGAGG (sugars k3 d10 k3, PS)	22%	–	–
GCCAACTTATAGCACT (sugars k3 d10 k3, PS)	–	–	target mRNA inhibition (MM.1R, 0.0625 µM): 17%; target mRNA inhibition (MM.1R, 0.25 µM): -17%; target mRNA inhibition (MM.1R, 4 µM): 8%
GCCAAGGAGGCGGGCC (sugars k3 d10 k3, PS)	–	-2%	–
GCCAAGGATAACCTGA (sugars k3 d10 k3, PS)	69%	27%	target mRNA inhibition (MM.1R, 0.0625 µM): 1%; target mRNA inhibition (MM.1R, 0.074 µM): 0%; target mRNA inhibition (MM.1R, 0.222 µM): 5%; target mRNA inhibition (MM.1R, 0.25 µM): 10%; target mRNA inhibition (MM.1R, 0.666 µM): 13%; target mRNA inhibition (MM.1R, 2 µM): 37%; target mRNA inhibition (MM.1R, 4 µM): 59%
GCCACCGACTCTTTTT (sugars k3 d10 k3, PS)	–	-5%	–
GCCCATGTGAGCTCTT (sugars k3 d10 k3, PS)	50%	–	–
GCCCGGGAGAGCGGAG (sugars k3 d10 k3, PS)	–	-32%	–
GCCGAACTCTCCGCCT (sugars k3 d10 k3, PS)	51%	–	–
GCCGAAGTCAACAGGA (sugars k3 d10 k3, PS)	–	-17%	–
GCCTTCTCGGAACTTT (sugars k3 d10 k3, PS)	32%	–	–
GCGAATGTGCCTTGTG (sugars k3 d10 k3, PS)	–	12%	–
GCGACTGCTGAAAACC (sugars k3 d10 k3, PS)	–	-4%	–
GCGCACTAAGTGGGCT (sugars k3 d10 k3, PS)	-10%	–	–
GCGCATCCCCTGGGCG (sugars k3 d10 k3, PS)	-4%	–	–
GCGCCCAATCACCTTC (sugars k3 d10 k3, PS)	3%	–	–
GCGCGGAGGACCTCGC (sugars k3 d10 k3, PS)	10%	–	–
GCGGAGGACCTCGCCT (sugars k3 d10 k3, PS)	8%	–	–
GCTAAACCTGGCACCA (sugars k3 d10 k3, PS)	–	7%	–
GCTAAAGGAGTGCAGG (sugars k3 d10 k3, PS)	7%	–	–
GCTAGAACATGATGAG (sugars k3 d10 k3, PS)	14%	–	–

Sequence	target mRNA inhibition (SK-MEL-28, 4 µM)	target mRNA inhibition (MM.1R, 1 µM)	also measured
GCTCAACCTGGAAGGA (sugars k3 d10 k3, PS)	25%	–	–
GCTCAATAATCTCCCA (sugars k3 d10 k3, PS)	–	0%	–
GCTCAGAATGAAGTTA (sugars k3 d10 k3, PS)	48%	–	–
GCTCCACAGCAAGGCC (sugars k3 d10 k3, PS)	58%	–	–
GCTCGGAGCGACCCAA (sugars k3 d10 k3, PS)	8%	–	–
GCTGAAACGGTCAGCA (sugars k3 d10 k3, PS)	–	8%	–
GCTGAACCCCACAGGA (sugars k3 d10 k3, PS)	–	0%	–
GCTGAATTGTCATGAA (sugars k3 d10 k3, PS)	36%	–	–
GCTGAGATAAGAAGCA (sugars k3 d10 k3, PS)	32%	–	–
GCTGAGATAGGAAGCA (sugars k3 d10 k3, PS)	19%	–	–
GCTGTGTGTCAAAGAG (sugars k3 d10 k3, PS)	6%	–	–
GCTTACAAAAACTTGG (sugars k3 d10 k3, PS)	26%	–	–
GCTTACTGTGATTCTG (sugars k3 d10 k3, PS)	34%	–	–
GCTTCAAGACAGGTCT (sugars k3 d10 k3, PS)	–	29%	–
GGAAAGACAAGTGCCC (sugars k3 d10 k3, PS)	54%	–	–
GGAAATTCAAGCTTTC (sugars k3 d10 k3, PS)	64%	–	–
GGAACAAAAGGTTCCC (sugars k3 d10 k3, PS)	12%	–	–
GGAACTAGTCGACAGC (sugars k3 d10 k3, PS)	–	18%	–
GGAAGCACTGGCATCG (sugars k3 d10 k3, PS)	55%	–	–
GGAATGGCGGATAGAT (sugars k3 d10 k3, PS)	33%	–	–
GGAATTTCCATTGGAG (sugars k3 d10 k3, PS)	44%	–	–
GGACAATGGAGATACT (sugars k3 d10 k3, PS)	–	3%	–
GGACACCACCTCGAGG (sugars k3 d10 k3, PS)	–	1%	–

— the OligoGym collection
